In ChEMBL document CHEMBL1201862, “PubChem BioAssay data set” (2004):
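Five concentrations, 48 hours, 96-well plates. GI50 marks 50% less growth.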 Calls of active or inactive are those of the source. Cut-off read from the data, not from the text of the source: active = GI50 up to about 1.1 µM and inactive = higher.

How the values were obtained:
Test in all cases: NCI anticancer screen, dose series, 48 h
ACHN = tested on: ACHN
CAKI-1 = tested on: CAKI-1
CCRF-CEM = tested on: CCRF-CEM
HCC 2998 = tested on: HCC 2998
HOP-62 = tested on: HOP-62
HOP-92 = tested on: HOP-92
IGROV-1 = tested on: IGROV-1
M14 = tested on: M14
MCF7 = tested on: MCF7
MDA-N = tested on: MDA-N
Malme-3M = tested on: Malme-3M
NCI-H226 = tested on: NCI-H226
NCI-H522 = tested on: NCI-H522
OVCAR-8 = tested on: OVCAR-8
RXF 393 = tested on: RXF 393
SF-539 = tested on: SF-539
SK-MEL-2 = tested on: SK-MEL-2
SNB-75 = tested on: SNB-75
UACC-62 = tested on: UACC-62
UO-31 = tested on: UO-31

| SMILES | GI50 (ACHN) | GI50 (CAKI-1) | GI50 (CCRF-CEM) | GI50 (HCC 2998) | GI50 (HOP-62) | GI50 (HOP-92) | GI50 (IGROV-1) | GI50 (M14) | GI50 (MCF7) | GI50 (MDA-N) | GI50 (Malme-3M) | GI50 (NCI-H226) | GI50 (NCI-H522) | GI50 (OVCAR-8) | GI50 (RXF 393) | GI50 (SF-539) | GI50 (SK-MEL-2) | GI50 (SNB-75) | GI50 (UACC-62) | GI50 (UO-31) |
| --- | --- | --- | --- | --- | --- | --- | --- | --- | --- | --- | --- | --- | --- | --- | --- | --- | --- | --- | --- | --- |
| N#C/C(=C/n1c(=S)[nH]c2ccccc21)C(N)=O | > 100 µM (inactive) | > 100 µM (inactive) | > 100 µM (inactive) | > 100 µM (inactive) | > 100 µM (inactive) | 11 µM (inactive) | > 100 µM (inactive) | > 100 µM (inactive) | > 100 µM (inactive) | > 100 µM (inactive) | > 100 µM (inactive) | > 100 µM (inactive) | > 100 µM (inactive) | > 100 µM (inactive) | > 100 µM (inactive) | > 100 µM (inactive) | > 100 µM (inactive) | > 100 µM (inactive) | > 100 µM (inactive) | > 100 µM (inactive) |
| COc1c2c3c4c(c(OC)c(=O)c5c(O)cc(OC)c(c6c(OC)cc(O)c(c1=O)c63)c54)C(C(C)O)C2C(C)O (stereo not given) | 0.811 µM (active) | 0.53 µM (active) | 0.542 µM (active) | 0.431 µM (active) | 0.689 µM (active) | 0.421 µM (active) | 0.853 µM (active) | 1.07 µM (active) | 1.03 µM (active) | 0.767 µM (active) | 1.17 µM (inactive) | 0.796 µM (active) | 0.415 µM (active) | 0.449 µM (active) | 0.471 µM (active) | 0.796 µM (active) | 1.23 µM (inactive) | 0.518 µM (active) | 0.953 µM (active) | 0.39 µM (active) |
| Nc1cccc2nsnc12 | > 95.7 µM (inactive) | 74.3 µM (inactive) | 11.9 µM (inactive) | > 84.3 µM (inactive) | > 100 µM (inactive) | > 100 µM (inactive) | > 100 µM (inactive) | > 83.9 µM (inactive) | > 88.3 µM (inactive) | 49.8 µM (inactive) | > 100 µM (inactive) | > 100 µM (inactive) | 9.1 µM (inactive) | > 100 µM (inactive) | > 100 µM (inactive) | > 100 µM (inactive) | > 100 µM (inactive) | 53.8 µM (inactive) | 48.6 µM (inactive) | > 40.5 µM (inactive) |
| COC(=O)/C(=N\N)C(C(=O)C(=O)Nc1cc(Cl)ccc1Cl)c1nc2ccc([N+](=O)[O-])cc2nc1O (stereo not given) | 50.9 µM (inactive) | > 100 µM (inactive) | > 100 µM (inactive) | > 100 µM (inactive) | > 100 µM (inactive) | > 100 µM (inactive) | 50.1 µM (inactive) | > 100 µM (inactive) | > 100 µM (inactive) | > 100 µM (inactive) | > 100 µM (inactive) | > 100 µM (inactive) | > 100 µM (inactive) | > 100 µM (inactive) | > 100 µM (inactive) | > 100 µM (inactive) | > 100 µM (inactive) | > 100 µM (inactive) | > 100 µM (inactive) | 29.6 µM (inactive) |
| C=CC(=O)N1C/C(=C\c2ccc(Cl)cc2)C(=O)/C(=C/c2ccc(Cl)cc2)C1 | 0.286 µM (active) | 0.343 µM (active) | 0.175 µM (active) | 0.296 µM (active) | 0.317 µM (active) | 1.54 µM (inactive) | 0.353 µM (active) | 0.255 µM (active) | 0.151 µM (active) | 0.214 µM (active) | 0.973 µM (active) | 0.237 µM (active) | 0.514 µM (active) | 0.322 µM (active) | 0.275 µM (active) | 0.188 µM (active) | 1.32 µM (inactive) | 0.405 µM (active) | 0.294 µM (active) | 0.335 µM (active) |
| COc1cc([C@@H]2c3cc4c(cc3C[C@H]3COC(=O)[C@@H]32)OCO4)cc2c1OCO2 [AUSTROBAILIGNAN 1] | < 0.0121 µM (active) | < 0.01 µM (active) | 0.664 µM (active) | < 0.01 µM (active) | < 0.01 µM (active) | < 0.01 µM (active) | < 0.01 µM (active) | < 0.01 µM (active) | < 0.01 µM (active) | < 0.01 µM (active) | < 0.01 µM (active) | < 0.01 µM (active) | < 0.01 µM (active) | < 0.01 µM (active) | < 0.01 µM (active) | < 0.01 µM (active) | < 0.01 µM (active) | 0.0278 µM (active) | < 0.01 µM (active) | < 0.01 µM (active) |
| CN(C)/C=N\c1cccc2c1NSN2 | > 100 µM (inactive) | > 100 µM (inactive) | > 100 µM (inactive) | > 100 µM (inactive) | > 100 µM (inactive) | > 100 µM (inactive) | > 100 µM (inactive) | > 100 µM (inactive) | > 100 µM (inactive) | > 100 µM (inactive) | > 100 µM (inactive) | > 100 µM (inactive) | > 100 µM (inactive) | > 100 µM (inactive) | > 100 µM (inactive) | > 100 µM (inactive) | > 100 µM (inactive) | > 100 µM (inactive) | > 100 µM (inactive) | > 100 µM (inactive) |
| CCOC(=O)c1cccc(/N=N/c2nc[nH]c2/C=C/C(=O)OC)c1 | 16.5 µM (inactive) | 4.97 µM (inactive) | 3.95 µM (inactive) | 11 µM (inactive) | 6.35 µM (inactive) | 45.1 µM (inactive) | 7.53 µM (inactive) | 13.3 µM (inactive) | 4.18 µM (inactive) | 28.4 µM (inactive) | 8.71 µM (inactive) | 64.4 µM (inactive) | 9.38 µM (inactive) | 16.5 µM (inactive) | 16.4 µM (inactive) | 7.14 µM (inactive) | 23.7 µM (inactive) | 18.5 µM (inactive) | 23.6 µM (inactive) | 8.15 µM (inactive) |
| O=C(/C=C/c1ccc(O)c(O)c1)NC(CO)C(=O)O (stereo not given) | > 100 µM (inactive) | > 100 µM (inactive) | > 100 µM (inactive) | > 100 µM (inactive) | > 100 µM (inactive) | 3.72 µM (inactive) | 0.612 µM (active) | > 100 µM (inactive) | > 100 µM (inactive) | > 100 µM (inactive) | > 100 µM (inactive) | > 100 µM (inactive) | > 100 µM (inactive) | > 100 µM (inactive) | > 100 µM (inactive) | > 100 µM (inactive) | > 100 µM (inactive) | > 100 µM (inactive) | > 100 µM (inactive) | > 100 µM (inactive) |
| O=C(O)C(SC1=NC(=O)C2(NN1)c1ccccc1-c1ccccc12)SC1=NC(=O)C2(NN1)c1ccccc1-c1ccccc12 | > 10 µM (inactive) | > 10 µM (inactive) | > 10 µM (inactive) | > 10 µM (inactive) | > 10 µM (inactive) | > 10 µM (inactive) | > 10 µM (inactive) | > 10 µM (inactive) | 8.67 µM (inactive) | > 10 µM (inactive) | > 10 µM (inactive) | > 10 µM (inactive) | > 10 µM (inactive) | > 10 µM (inactive) | > 10 µM (inactive) | > 10 µM (inactive) | > 10 µM (inactive) | 2.74 µM (inactive) | > 10 µM (inactive) | > 10 µM (inactive) |
| COc1cc2ccccc2oc1=O | 63 µM (inactive) | 99.3 µM (inactive) | 41.9 µM (inactive) | 78.2 µM (inactive) | 59.8 µM (inactive) | 40 µM (inactive) | > 100 µM (inactive) | 81.7 µM (inactive) | 54.8 µM (inactive) | > 100 µM (inactive) | 99.1 µM (inactive) | > 100 µM (inactive) | 32.6 µM (inactive) | > 100 µM (inactive) | 0.33 µM (active) | > 100 µM (inactive) | 23.3 µM (inactive) | 57.3 µM (inactive) | 24 µM (inactive) | 39 µM (inactive) |
